Source: patent publication US7598341B2, “Molecules that selectively home to vasculature of premalignant or malignant lesions of the pancreas and other organs” (Burnham Institue for Medical Research, priority 2003, dated 2009)
“Also recorded” adds a separate entry of the source.

What was measured:
[1] = tested on: RIP1-Tag2 angiogenic islets and tumors; assay: In vivo homing of phage (pools and individual phage) in RIP1-Tag2 mice; set-up: species or system mouse; details: phage-displayed peptide, i.v., FIG. 1D, with ex vivo binding patterns
Method: For in vivo selection of phage that home specifically to premalignant lesions and malignant tumors, the ex vivo pre-selected phage pool was injected intravenously into 12 week old RIP1-Tag2 mice through the tail vein, allowed to circulate for 7 minutes and heart-perfused with PBS to remove unbound intravascular phage. As the vasculature is preferentially available for the phage to bind in this selection, there is an enrichment of phage that bind to the endothelium of the target tissue.
The RIP1-Tag2 lesions and control tissues (brain, kidney, spleen, lung, ‘white’ pancreas lacking hemorrhagic lesions and liver were excised to allow for comparison of homing efficiencies. Cell suspensions were prepared by mechanical disruption of the tissues. Tissues were washed to remove unbound phage, and the bound phage rescued and amplified by adding E. coli. The phage pool was re-injected into mice at a similar disease stage, and the cycle repeated. In each experiment, non-recombinant control phage were used as a control for relative selectivity.
Sets of 96 phage clones were randomly collected from each homing phage population that selectively homed to premalignant angiogenic islets or pancreatic tumor cells. Peptide-encoding DNA inserts from collected phage clones were amplified by PCR, and the PCR products sequenced. Phage representing the most frequently appearing peptide motifs were individually tested for their ability to selectively home to the lesions on which they were selected, relative to other stages in the tumorigenesis pathway and to control organs. Six of the phage selected for further analysis were from the tumor screen (referred to as KAA, RGR, RSR, VGVA, VGVG and KAR), and one (EYQ) was picked from the angiogenic screen.

[2] = tested on: RIP1-Tag2 angiogenic islets and tumors; assay: Localization of fluorescein-conjugated peptides after intravenous injection; type: in vivo, mouse; details: for localization in RIP1-Tag2 angiogenic islets / localization in RIP1-Tag2 tumors / localization in normal islets: fluorescein-conjugated peptide i.v., 7 minutes circulation, FIG. 2; for homing selectivity of purified peptides: i.v. into 8-week or 12-week old RIP-Tag2 mice; for homing to normal islets, kidney, brain, liver, lung or spleen: purified peptides i.v.
Method: Fluorescein-conjugated peptides corresponding to phage insert sequences were synthesized using an automated peptide synthesizer with standard solid-phase fluorenylmethoxycarbonyl (Fmoc) chemistry. […] of each individual fluorescein-conjugated peptide was injected intravenously into the tail vein of RIP1-Tag2 mice at 8 or 12 weeks of age, and into normal BL/6 mice. The peptide was allowed to circulate for 7 minutes, followed by heart perfusion first with PBS and then with Zn-buffered formalin. The RIP1-Tag2 pancreas and control organs (brain, kidney, liver, lung and spleen) were removed, fixed for one hour in formalin, washed with 1×PBS, placed in 30% sucrose for several hours, washed with 1×PBS, and embedded in OCT (Tissue-Tek). Each peptide was injected into at least three individual RIP1-Tag2 or normal mice at each of the different stages. To examine the localization of injected fluorescein-conjugated peptides, frozen sections ([…] thick) were cut on a cryostat, mounted in Vectashield Mounting Medium with DAPI (Vector Laboratories) and visualized under an inverted fluorescent microscope or a confocal microscope (Zeiss LSM 510 META).

[3] = tested on: endothelial cell and pericyte markers (MECA-32, NG2); assay: Co-localization of fluorescein-conjugated peptides with vascular markers; type: in vivo, mouse; details: fluorescein-conjugated peptide i.v.; for co-localization with endothelial cell and pericyte markers in RIP1-Tag2 islet lesions: MECA-32, NG2, FIG. 3
Method: To confirm that intravenous administration of phage libraries selects for phage carrying peptides that bind to endothelial molecules specific for the target vasculature, tissues were collected following i.v. infusion with the various fluorescein-conjugated peptides, sectioned, and evaluated with endothelial cell markers.
(§1) For immunohistochemistry, frozen slides were pre-incubated with blocking buffer (1×PNB from NEN Biosciences) for one hour, washed several times in 1×PBS and incubated with the primary antibody of interest overnight at 4° C. The cell-specific antibodies used were rat monoclonal anti-mouse CD31 (1:200; BD Pharmingen), rat monoclonal anti-mouse MECA-32 (1:200; BD Pharmingen), rabbit polyclonal anti-mouse NG2 (1:200; Chemicon), and rat monoclonal anti-mouse PDGFRb (CD140b) (1:200; eBioscience). The corresponding secondary antibodies; Cy-3 donkey anti-rabbit IgG and Rhodamine Red donkey anti-rat IgG (Jackson ImmunoResearch), were used at a 1:200 dilution and incubated for one hour at room temperature. The following species-matched immunoglobulins were used as negative controls; rabbit IgG (Vector Laboratories) and rat IgG (Jackson ImmunoResearch) at a 1:200 dilution. The slides were washed several times in 1×PBS and mounted in Vectashield Mounting Medium with DAPI (Vector Laboratories). Hematoxylin and eosin (H&E) staining was performed for histological grading of adjacent sections by standard methods, and lesions were graded as previously described (Lopez and Hanahan, 2002).
The primary analysis involved immunostaining with a mouse pan-endothelial cell antigen (MECA-32) antibody that recognizes a dimer of 50-55 kDa protein subunits present on all endothelial cells (Hallman et al., 1995; Leppink et al., 1989) (FIG. 3 B,C,H,I,N,O). Additional analyses involved immunostaining to reveal CD31/PE-CAM, or systemic infusion of a fluorescent-labeled lectin that binds to the endothelial lumen. In addition, tissue sections from peptide-infused mice were stained with an antibody recognizing NG2, a marker of the neovascular pericytes (Schlingemann et al., 1990, 1991) (FIG. 3 E,F,K,L,Q,R).

[4] = tested on: squamous cell carcinoma in a K14-HPV16 mouse; assay: Homing to HPV tumor; type: in vivo; details: FIG. 4A
Method: (§2) To determine whether phage identified to home to pancreatic tumors also home to other types of tumors, these phage were tested using animals having various types of tumors, including bTC3 subcutaneous tumor and MDA MB-435 subcutaneous tumor. bTC3 transplant tumors arise following subcutaneous inoculation of nude mice with cultured islet tumor-derived (bTC3) cells (Efrat et al., 1988). Since the vasculature of a subcutaneously grown bTC3 tumor derives from skin, we also tested another subcutaneous transplant tumor, arising from inoculation of the MDA-MB-435 human breast carcinoma cell line. Finally, K14-HPV16 mice, another well-studied transgenic mouse model of cancer that develop tumors of the squamous epithelial cells of the skin (Arbeit et al., 1994; Coussens et al., 1996), was used to compare RIP1-Tag2 islet tumors to a tumor with similar multistage pathogenesis arising in a different tissue.
(§3) Tumors were dissected from the ear or chest of K14-HPV16 mice. For the bTC3 allograft models, 10^6 bTC3 tumor cells (Efrat et al., 1988) were inoculated under the skin of the rear flank of nu/nu mice in a BALB/c background and allowed to grow until approximately 5 mm in size, and then used for experimental analysis. MDA-MB-435 xenograft models were generated by inoculating 10^6 tumor cells subcutaneously in the chest of nu/nu Balb/c mice. Tumors were used for the homing/binding experiments at 8-12 weeks after injection of the tumor cells.

[5] = tested on: bTC3-derived subcutaneous transplant tumor in a nude mouse; assay: Homing to bTC3 subcutaneous tumor; type: in vivo; details: FIG. 4A
Method: as §2, §3

[6] = tested on: MDA MB-435 subcutaneous tumor; assay: Homing to MDA-MB-435 subcutaneous tumor; type: in vivo, mouse; details: fluorescein-conjugated peptide i.v., FIG. 4B
Method: as §2, §3

[7] = tested on: RIP1-Tag2 pancreatic tumor, bTC3-derived subcutaneous transplant tumor, K14-HPV16 squamous cell carcinoma; assay: Relative homing efficiency of individual phage in various tumor models (FIG. 4A); type: in vivo, mouse; details: phage from the RIP1-Tag2 tumor screen
Method: as §2, §3
FIG. 4A is bar graph showing homing efficiency of individual phage to a pancreatic tumor in a RIP1-Tag2 mouse, a bTC3-derived subcutaneous transplant tumor in a nude mouse, and a squamous cell carcinoma in a K14-HPV16 mouse.

PDGFRβ [8] = target: T1, PDGFRβ (Homo sapiens, UniProt P09619); assay: Phage binding to transfected 293T cells (plaque assay); details: FIG. 5A
T1 construct: expressed in transfected cells; host or cells: 293T cells
T1 sequence (P09619 33-1106, species assumed): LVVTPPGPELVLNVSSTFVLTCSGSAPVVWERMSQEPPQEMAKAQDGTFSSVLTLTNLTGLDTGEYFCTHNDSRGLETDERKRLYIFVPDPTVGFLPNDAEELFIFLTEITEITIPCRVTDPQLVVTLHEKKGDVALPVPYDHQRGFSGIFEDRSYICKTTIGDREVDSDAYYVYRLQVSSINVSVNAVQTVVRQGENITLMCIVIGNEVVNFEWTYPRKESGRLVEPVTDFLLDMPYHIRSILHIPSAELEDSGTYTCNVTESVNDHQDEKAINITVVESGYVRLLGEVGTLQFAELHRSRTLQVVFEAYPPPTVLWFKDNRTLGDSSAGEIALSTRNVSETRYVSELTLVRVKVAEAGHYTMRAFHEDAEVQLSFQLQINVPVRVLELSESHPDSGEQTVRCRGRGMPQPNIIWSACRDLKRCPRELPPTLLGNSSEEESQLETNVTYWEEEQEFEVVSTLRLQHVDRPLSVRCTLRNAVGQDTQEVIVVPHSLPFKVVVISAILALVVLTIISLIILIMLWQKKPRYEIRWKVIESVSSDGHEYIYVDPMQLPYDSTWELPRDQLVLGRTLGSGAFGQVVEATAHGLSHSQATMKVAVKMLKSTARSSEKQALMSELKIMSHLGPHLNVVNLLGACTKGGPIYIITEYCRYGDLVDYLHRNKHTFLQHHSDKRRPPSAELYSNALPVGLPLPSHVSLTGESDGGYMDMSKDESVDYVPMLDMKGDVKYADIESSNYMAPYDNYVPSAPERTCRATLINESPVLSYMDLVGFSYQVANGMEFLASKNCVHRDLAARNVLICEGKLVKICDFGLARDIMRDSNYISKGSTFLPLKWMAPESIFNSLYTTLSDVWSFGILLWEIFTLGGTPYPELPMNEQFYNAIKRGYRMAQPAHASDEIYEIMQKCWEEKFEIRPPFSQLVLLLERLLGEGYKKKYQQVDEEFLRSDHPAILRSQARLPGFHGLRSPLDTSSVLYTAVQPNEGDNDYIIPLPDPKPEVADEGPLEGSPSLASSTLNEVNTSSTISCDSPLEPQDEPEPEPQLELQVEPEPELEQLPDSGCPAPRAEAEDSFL
Method: To confirm that the RGR peptide binds specifically to PDGFRβ, phage displaying this peptide were incubated with 293T cells overexpressing PDGFRβ. Recombinant 293T cells were prepared by transfecting with plasmids encoding PDGFRβ or VEGFR-2 (Borges et al., 2000) using Fugene transfection reagent (Roche Diagnostics). Briefly, 10 μg of plasmid was mixed with 700 μl of DMEM without serum and 30 μl of Fugene reagent, and incubated for 15 minutes at room temperature before adding the mixture to the cells. Forty-eight hours post-transfection the cells were detached from the culture plates using EDTA and washed once with PBS. Recombinant phage displaying the RSR, RGR peptides and control nonrecombinant phage (about 1×10^9 pfu) were incubated with the transfected cells for 2 hours at 4° C., followed by 5 washes with 1% BSA in PBS to remove the unbound phage. The bound phage were rescued by adding bacteria, and the binding efficiencies were determined by plaque assay.

PDGFRβ [9] = target: T2, PDGFRβ (Mus musculus, UniProt P05622); assay: Co-localization of i.v. injected fluorescein-conjugated peptide with PDGFRβ immunostaining in RIP1-Tag2 tumors; type: in vivo; details: tissue sections from RIP1-Tag2 tumors, FIG. 5B
T2 construct: from tissue; host or cells: pancreatic islet tumors of RIP1-Tag2 transgenic mice
T2 sequence (P05622 32-1098): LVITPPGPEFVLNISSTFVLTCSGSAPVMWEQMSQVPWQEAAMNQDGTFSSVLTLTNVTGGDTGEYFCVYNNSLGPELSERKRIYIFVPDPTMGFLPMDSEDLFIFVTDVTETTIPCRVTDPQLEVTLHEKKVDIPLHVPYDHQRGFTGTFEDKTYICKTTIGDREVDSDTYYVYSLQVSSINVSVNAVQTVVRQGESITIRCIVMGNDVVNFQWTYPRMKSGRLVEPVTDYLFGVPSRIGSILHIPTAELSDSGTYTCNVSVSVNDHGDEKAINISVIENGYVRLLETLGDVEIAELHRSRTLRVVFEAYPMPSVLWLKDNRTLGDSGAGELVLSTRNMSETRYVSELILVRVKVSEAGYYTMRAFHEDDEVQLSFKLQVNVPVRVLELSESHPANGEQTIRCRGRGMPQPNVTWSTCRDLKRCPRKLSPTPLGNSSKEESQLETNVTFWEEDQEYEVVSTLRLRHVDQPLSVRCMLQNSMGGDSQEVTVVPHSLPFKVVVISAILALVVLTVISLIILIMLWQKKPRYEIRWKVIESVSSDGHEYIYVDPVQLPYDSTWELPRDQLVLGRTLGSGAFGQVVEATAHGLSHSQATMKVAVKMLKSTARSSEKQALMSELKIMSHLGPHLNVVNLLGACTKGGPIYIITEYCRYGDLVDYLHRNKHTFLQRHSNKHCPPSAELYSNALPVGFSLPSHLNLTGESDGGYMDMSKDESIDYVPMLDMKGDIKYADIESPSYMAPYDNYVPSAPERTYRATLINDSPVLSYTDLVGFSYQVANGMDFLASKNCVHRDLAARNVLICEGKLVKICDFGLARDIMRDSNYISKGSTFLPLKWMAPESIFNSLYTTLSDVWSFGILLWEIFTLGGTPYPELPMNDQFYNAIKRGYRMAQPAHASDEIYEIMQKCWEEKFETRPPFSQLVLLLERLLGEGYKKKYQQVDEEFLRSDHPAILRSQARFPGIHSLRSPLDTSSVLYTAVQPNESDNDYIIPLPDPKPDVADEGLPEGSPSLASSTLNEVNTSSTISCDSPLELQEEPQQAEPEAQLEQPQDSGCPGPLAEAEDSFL
Method: as §1
FIG. 5A is a bar graph showing binding of RGR or RSR phage to 293 cells transfected with either PDGFRβ, VEGFR2, or non-transfected cells.

Row | Substance | homing class of individual phage (angiogenic islets or tumors in vivo) [1] | localization in RIP1-Tag2 angiogenic islets [2] | localization in RIP1-Tag2 tumors [2] | localization in normal islets [2] | homing selectivity of purified peptides [2] | homing to normal islets, kidney, brain, liver, lung or spleen [2] | co-localization with MECA-32 or NG2 in adjacent exocrine pancreas or normal pancreatic islets [3] | co-localization with endothelial cell and pericyte markers in RIP1-Tag2 islet lesions [3] | homing to HPV tumor [4] | homing to TC3 tumor [5] | homing to MDA tumor [6] | relative homing efficiencies in the various tumor models (category) [7] | binding to PDGFRβ-transfected cells (PDGFRβ [8]) | co-localization with PDGFRβ (PDGFRβ [9]) | co-localization with PDGFRβ (PDGFRβ [9]; listed as CRGRRST)
1 | CRSRKG [linear homing peptide] | angiogenic islet-selective | abundant accumulation | little or no localization | little or no localization | highly selective for premalignant angiogenic islets | did not appreciably home | no co-localization | some co-localization both with endothelial cell and pericyte markers; also recorded: co-localized both with the endothelial cell and pericyte markers | did not home appreciably | homed | did not home appreciably | – | – | – | –
2 | CKGAKAR | tumor-selective | – | – | – | malignant solid tumors | did not appreciably home | – | – | homed | did not home appreciably | – | more general homing to other tumors in addition to RIP1-Tag2 | – | – | –
3 | CRGRRST [linear homing peptide] | home to both types of lesion | localizes | localizes | little or no localization | both angiogenic islets and tumors | did not appreciably home | no co-localization | some co-localization both with endothelial cell and pericyte markers; also recorded: co-localized both with the endothelial cell and pericyte markers | did not home appreciably | did not home appreciably | did not home appreciably | selectively home to RIP1-Tag2 tumors | bind | almost complete co-localization | co-localize
4 | CEYQLDVE [linear homing peptide] | angiogenic islet-selective | – | – | – | highly selective for premalignant angiogenic islets | did not appreciably home | – | – | – | – | – | – | – | – | –
5 | FRVGVADV [linear homing peptide; homes to both types of lesion] | home to both types of lesion | – | – | – | both angiogenic islets and tumors | did not appreciably home | – | – | did not home appreciably | did not home appreciably | – | selectively home to RIP1-Tag2 tumors | – | – | –
6 | VGVGEWSV | tumor-selective | – | – | – | – | – | – | – | did not home appreciably | homed | – | more general homing to other tumors in addition to RIP1-Tag2 | – | – | –
7 | CKAAKNK | tumor-selective | little or no localization | abundant localization | little or no localization | malignant solid tumors | did not appreciably home | no co-localization | some co-localization both with endothelial cell and pericyte markers; also recorded: co-localized both with the endothelial cell and pericyte markers | did not home appreciably | did not home appreciably | homed | selectively home to RIP1-Tag2 tumors | – | – | –
